Assay results as given in patent publication US20050272707A1, “Method for preventing or reducing secondary fractures after hip fracture” (priority 2002, published 2005).
Entries after “also recorded” stand apart in the source; their conditions may differ.

Tests used:
[1] = tested on: subsequent osteoporotic fractures after hip fracture; assay: placebo-controlled study of intravenous zoledronic acid in preventing subsequent osteoporotic fractures after a hip fracture; assay type: in vivo, human patients; conditions: patients after recent surgical repair of hip fracture; 5 mg i.v. once per year plus vitamin D and calcium vs vitamin D and calcium alone; 12 and 24 months
From the text: “A Multinational, multicenter, double-blind, randomized, placebo-controlled, parallel-group study assessing the efficacy of intravenous zoledronic acid in preventing subsequent osteoporotic fractures after a hip fracture” is undertaken.
This will be a multicenter, randomized, double-blind, placebo-controlled, parallel group trial in men and women. Patients undergoing recent surgical repair of a low-trauma hip fracture will be eligible for enrollment. There will be at least 3 study contacts with patients after randomization within the first 24 months. Patients will have additional visits annually until 211 patients have reached the primary endpoint. The final visit for patients will be contingent on when this endpoint is achieved. Once the endpoint is achieved all patients will need to come in for a final visit. The final visit will be no less than 30 days from the patient's last dose of study medication or no more than 90 days after the day 211 patients have reached the primary endpoint. […]
The primary efficacy endpoint is time to first clinical fracture. Between treatment differences will be evaluated using a log-rank test to compare the time to clinical fracture between the two treatment groups. […]

[2] = stability of diluted infusion solution; assay type: physicochemical; conditions: diluted with infusion media, 2-8° C.
Method: The cumulative time between dilution with infusion media, storage in a refrigerator and end of administration must not be longer than 24 hours. Ideally, diluted zoledronic acid solutions should be used immediately. However, if diluted zoledronic acid solutions cannot be used immediately, the solutions must be refrigerated at temperatures between 2-8° C. Before administration, the solution should be allowed to slowly warm to room temperature again.

bone resorption [3] = conditions: variety of assays of bone metabolism; cited from earlier work
bone resorption [4] = conditions: cited from earlier work

For `O=P(O)(O)C(O)(Cn1ccnc1)P(=O)(O)O` [zoledronic acid, 1-hydroxy-2-(imidazol-1-yl)ethane-1,1-diphosphonic acid], the “rate of subsequent (secondary) osteoporotic fractures” value [1] is listed as “significant reduction in secondary osteoporotic fractures; also recorded: significantly reduces the rate of all subsequent osteoporotic skeletal fractures”, the “stability of diluted infusion solutions” value [2] is listed as “at least 24 hours” and the “concentrations at which inhibition of bone resorption in vitro was demonstrated” value (bone resorption [3]) is listed as 0.3 to 30 nM. For the same compound, the “untoward effects on bone formation or mineralization” value (bone resorption [4]; at 0.3-30 nM in vitro and 0.3-30 μg/kg in vivo) was “without exerting any untoward effects on either bone formation or mineralization” and the “doses at which inhibition of bone resorption in vivo was demonstrated” value (bone resorption [4]; in vivo) was 0.3 to 30 µg/kg.
